According to patent US20220324815A1, “2-PHENOXY-PYRIMIDINE DERIVATIVES AS HERBICIDAL COMPOUNDS” (SYNGENTA CROP PROTECTION AG, priority 2019, published 2022):

Experiments:
Format in all cases: in vivo
Settings in all cases: 250 g/ha unless otherwise stated, evaluated after 13 days, five-point scale
[1] = test system: Amaranthus retoflexus (AMARE); assay: Test 1 glasshouse herbicide test, post-emergence application (Table B1)
Method: (§1) Seeds of a variety of test species are sown in standard soil in pots (Lolium perenne (LOLPE), Solanum nigrum (SOLNI), Amaranthus retoflexus (AMARE), Setaria faberi (SETFA), Echinochloa crus-galli (ECHCG) and Ipomoea hederacea (IPOHE)). After cultivation for one day (pre-emergence) or after 8 days cultivation (post-emergence) under controlled conditions in a glasshouse (at 24/16° C., day/night; 14 hours light; 65% humidity), the plants are sprayed with an aqueous spray solution derived from the formulation of the technical active ingredient in acetone/water (50:50) solution containing 0.5% Tween 20 (polyoxyethelyene sorbitan monolaurate, CAS RN 9005-64-5). Compounds are applied at 250 g/ha unless otherwise stated. The test plants are then grown in a glasshouse under controlled conditions in a glasshouse (at 24/16° C., day/night; 14 hours light; 65% humidity) and watered twice daily. After 13 days for pre and post-emergence, the test is evaluated for the percentage damage caused to the plant. The biological activities (% phytotoxicity) are shown in Tables B1 and B2 below using a five-point scale (5=81 to 100%; 4=61 to 80%; 3=41 to 60%; 2=21 to 40%; 1=0 to 20%).

[2] = test system: Ipomoea hederacea (IPOHE); assay: as above
Method: as §1

[3] = test system: Echinochloa crus-galli (ECHCG); assay: as above
Method: as §1

Setaria faberi (SETFA) [4] = assay: as above
Method: as §1

[5] = test system: Amaranthus retoflexus (AMARE); assay: Test 1 glasshouse herbicide test, pre-emergence application (Table B2)
Method: as §1

[6] = test system: Ipomoea hederacea (IPOHE); assay: as above
Method: as §1

[7] = test system: Echinochloa crus-galli (ECHCG); assay: as above
Method: as §1

Setaria faberi (SETFA) [8] = assay: as above
Method: as §1

Row | SMILES | % phytotoxicity AMARE, post-emergence application [1] | % phytotoxicity IPOHE, post-emergence application [2] | % phytotoxicity ECHCG, post-emergence application [3] | % phytotoxicity SETFA, post-emergence application (Setaria faberi (SETFA) [4]) | % phytotoxicity AMARE, pre-emergence application [5] | % phytotoxicity IPOHE, pre-emergence application [6] | % phytotoxicity ECHCG, pre-emergence application [7] | % phytotoxicity SETFA, pre-emergence application (Setaria faberi (SETFA) [8])
1 | CCC(C)Sc1ccccc1Oc1ncc(Cl)cn1 (racemic) [Compound A65] | 1 (1=0 to 20%) | 3 (3=41 to 60%) | 4 (4=61 to 80%) | 3 (3=41 to 60%) | 3 (3=41 to 60%) | 1 (1=0 to 20%) | 4 (4=61 to 80%) | 4 (4=61 to 80%)
2 | CCCC(C)CSc1ccccc1Oc1ncc(Cl)cn1 (racemic) [Compound A69] | 4 (4=61 to 80%) | 1 (1=0 to 20%) | 4 (4=61 to 80%) | 2 (2=21 to 40%) | 1 (1=0 to 20%) | 1 (1=0 to 20%) | 3 (3=41 to 60%) | 4 (4=61 to 80%)
3 | CCCC(C)CS(=O)(=O)c1ccccc1Oc1ncc(Cl)cn1 (racemic) [Compound A74] | 3 (3=41 to 60%) | 1 (1=0 to 20%) | 1 (1=0 to 20%) | 1 (1=0 to 20%) | 1 (1=0 to 20%) | 1 (1=0 to 20%) | 1 (1=0 to 20%) | 1 (1=0 to 20%)
4 | CCCCS(=O)(=O)c1ccccc1Oc1ncc(Cl)cn1 [Compound A20] | 2 (2=21 to 40%) | 1 (1=0 to 20%) | 2 (2=21 to 40%) | 3 (3=41 to 60%) | 3 (3=41 to 60%) | 1 (1=0 to 20%) | 4 (4=61 to 80%) | 4 (4=61 to 80%)
5 | CCCCSc1ccccc1Oc1ncc(Cl)cn1 [Compound A21] | 4 (4=61 to 80%) | 3 (3=41 to 60%) | 4 (4=61 to 80%) | 4 (4=61 to 80%) | 4 (4=61 to 80%) | 2 (2=21 to 40%) | 5 (5=81 to 100%) | 5 (5=81 to 100%)
6 | CCCC[S+]([O-])c1ccccc1Oc1ncc(Cl)cn1 (stereo not drawn) [Compound A22] | 3 (3=41 to 60%) | 2 (2=21 to 40%) | 4 (4=61 to 80%) | 4 (4=61 to 80%) | 4 (4=61 to 80%) | 5 (5=81 to 100%) | 5 (5=81 to 100%) | 5 (5=81 to 100%)
7 | CCCC(C)Sc1ccccc1Oc1ncc(Cl)cn1 (stereo not drawn) [Compound A33] | 3 (3=41 to 60%) | 1 (1=0 to 20%) | 2 (2=21 to 40%) | 2 (2=21 to 40%) | 1 (1=0 to 20%) | 1 (1=0 to 20%) | 1 (1=0 to 20%) | 3 (3=41 to 60%)
8 | N#Cc1ccc(CSc2ccccc2Oc2ncc(Cl)cn2)cc1 [Compound A36] | 5 (5=81 to 100%) | 3 (3=41 to 60%) | 3 (3=41 to 60%) | 4 (4=61 to 80%) | 5 (5=81 to 100%) | 2 (2=21 to 40%) | 4 (4=61 to 80%) | 5 (5=81 to 100%)
9 | Cl/C=C/CSc1ccccc1Oc1ncc(Cl)cn1 [Compound A37] | 4 (4=61 to 80%) | 2 (2=21 to 40%) | 2 (2=21 to 40%) | 2 (2=21 to 40%) | 4 (4=61 to 80%) | 1 (1=0 to 20%) | 4 (4=61 to 80%) | 3 (3=41 to 60%)
10 | O=S(=O)(C/C=C/Cl)c1ccccc1Oc1ncc(Cl)cn1 [Compound A38] | 2 (2=21 to 40%) | 3 (3=41 to 60%) | 1 (1=0 to 20%) | 1 (1=0 to 20%) | 2 (2=21 to 40%) | 1 (1=0 to 20%) | 1 (1=0 to 20%) | 1 (1=0 to 20%)
11 | N#Cc1cccc(Oc2ncc(Cl)cn2)c1SCCCCC(F)(F)F [Compound A39] | 5 (5=81 to 100%) | 3 (3=41 to 60%) | 5 (5=81 to 100%) | 5 (5=81 to 100%) | 5 (5=81 to 100%) | 2 (2=21 to 40%) | 5 (5=81 to 100%) | 5 (5=81 to 100%)
12 | N#Cc1cccc(Oc2ncc(Cl)cn2)c1SCCCCCC(F)(F)F [Compound A40] | 5 (5=81 to 100%) | 3 (3=41 to 60%) | 4 (4=61 to 80%) | 4 (4=61 to 80%) | 5 (5=81 to 100%) | 1 (1=0 to 20%) | 4 (4=61 to 80%) | 5 (5=81 to 100%)
13 | COCCSc1ccccc1Oc1ncc(Cl)cn1 [Compound A41] | 3 (3=41 to 60%) | 3 (3=41 to 60%) | 3 (3=41 to 60%) | 2 (2=21 to 40%) | 1 (1=0 to 20%) | 2 (2=21 to 40%) | 2 (2=21 to 40%) | 2 (2=21 to 40%)
14 | O=S(=O)(CC(F)(F)F)c1ccccc1Oc1ncc(Cl)cn1 [Compound A78] |  |  |  |  | 3 (3=41 to 60%) | 1 (1=0 to 20%) | 1 (1=0 to 20%) | 1 (1=0 to 20%)
